The test system of one experiment is U937 cells. Kind of experiment: Cellular assay in U937 cells on cell death (necroptosis), TNFα/zVAD.fmk. In kind it is cell-based. The settings on record: for pIC50: read-out: U937 IC50; for IC50: U-937, Key compound table 4, read-out: U937 IC50 (uM) Mean. An excerpt: Cellular Assay in U937 Cells to Measure the Activity of RIPK1-Inhibitors on Cell Death (Necroptosis).
Cell death was quantified in 96 well plates by determination of the amount of live cell using a CellTiter 96 AQueous reagent (Promega), a calorimetric method to measure the amount of live cells by reducing tetrazolium compound [3-(4,5-dimethylthiazol-2-yl)-5-(3-carboxymethoxyphenyl)-2-(4-sulfophenyl)-2H-tetrazolium, inner salt; MTS] into formazan. Absorbance of formazan was read at 490 nm. The inhibitory activity of the test compound was quantified in a concentration response curve (CRC) experiment. Compounds were obtained as 10 mM stock solutions and were diluted 1 to 10 volumes with DMSO to yield a 1 mM solution. From this solution 2 μl were diluted with 998 μl growth medium. 100 μl of 2 μM compound solution was further diluted sequentially with a dilution factor of 2.5 by adding 150 μl growth medium. A total of 10 concentrations were tested ranging from 10 μM to 0.26 nM or from 1 μM to 0.07 nM.
U937 cells were cultured in RPMI1640 Glutamax and 10% heat inactivated FBS. 50 μl cell suspension containing 1×10^6 cells/ml supplemented with 50 μM zVAD.fmk (Benzyloxycarbonyl-Val-Ala-Asp (OMe) fluoromethylketone) and 100 ng/ml recombinant human TNFα were dispensed in each well of a 96-well plate. 50 μl of compound dilutions (see above) were added and the cell suspension incubated overnight (18 to 24 hours) at 37° C., 5% CO2 in a humidified atmosphere (95% rH). High (no compound) and low control (no TNFα, zVAD.fmk) were tested with 7 replicates; all compound concentrations were tested in duplicates on each experimental plate.
CellTiter 96 Aqueous reagent was mixed (100 μl PMS (phenazine methosulfate) solution/2 ml MTS (3-(4,5-[…])-5-(3-carboxymethoxyphenyl)-2-(4-sulfophenyl)-2H-tetrazolium, inner salt) solution) and 20 μl were added per well. After 4 hours incubation at 37° C. (5% CO2 95% rH) optical density was measured at 490 nm on a microplate reader (Tecan Infinite M1000).
The % inhibition is expressed as percentage of the maximal inhibition value obtained in the absence of TNFα/zVAD.fmc.

The target in experiment [1] is T1, hRIPK1 (aa 1-375) fusion protein (Homo sapiens, UniProt Q13546).
T1 construct: hRIPK1 (aa 1-375) fusion protein
T1 sequence (Q13546 1-375): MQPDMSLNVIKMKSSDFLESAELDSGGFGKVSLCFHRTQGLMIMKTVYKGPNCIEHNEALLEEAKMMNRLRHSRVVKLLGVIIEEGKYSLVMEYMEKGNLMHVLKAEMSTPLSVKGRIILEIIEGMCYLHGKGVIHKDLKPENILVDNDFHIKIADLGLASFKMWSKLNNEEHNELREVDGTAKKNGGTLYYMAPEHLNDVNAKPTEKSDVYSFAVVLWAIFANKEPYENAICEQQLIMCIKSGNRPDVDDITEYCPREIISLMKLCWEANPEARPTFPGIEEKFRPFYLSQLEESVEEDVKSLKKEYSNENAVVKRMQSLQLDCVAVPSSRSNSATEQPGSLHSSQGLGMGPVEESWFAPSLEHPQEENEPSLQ
Kind of experiment: ADP-Glo kinase assay, RIPK1 autophosphorylation. In kind it is biochemical. As for the experimental part: Evaluation of Receptor-Interacting Protein Kinase 1 Inhibition.
The catalytic activity of RIPK1 was measured by monitoring the conversion of Adenosine triphosphate (ATP) to Adenosine diphosphate (ADP) due to autophosphorylation using an ADP-Glo kinase kit (Promega, catalog no. V9104).
After another 240 minutes incubation at room temperature, 5 μl Promega ADP-Glo reagent I were added to quench the reaction and deplete unconsumed ATP. After an incubation period of 30 minutes, 10 μl Promega ADP-Glo detection reagent II were added resulting in conversion of ADP to ATP, which generates a light-reaction between luciferase and luciferin. Luminescence was quantified after 30 minutes with a Pherastar FS (BMG LABTECH, Ortenberg).
The adjustment was obtained by nonlinear regression using the Levenberg Marquardt algorithm.

pIC50: −log10 of the molar value. Counter-ions that a name gives are not always drawn. Like-named read-outs stand apart in the source and are kept apart here.

`Cc1coc([C@@H]2CCON2C(=O)C2CCN(c3nccc(C(N)=O)n3)CC2)c1` [compound 151, (S)-2-(4-(3-(4-methylfuran-2-yl)isoxazolidine-2-carbonyl)piperidin-1-yl)pyrimidine-4-carboxamide 2,2,2-trifluoroacetate salt]: the pIC50 (usually the IC50 on a negative log10 scale, so that one unit is a factor of ten) in the experiment on U937 cells (Homo sapiens, U-937, Table 2) was 7.60; in experiment [1] (Table 1), 7.00.

As for `NC(=O)c1cc(N2CCC(C(=O)N3OCCC3c3cncc(CO)c3)CC2)ncn1` (racemic) [Ex. 032*, 6-[4-[3-[5-(Hydroxymethyl)-3-pyridyl]isoxazolidine-2-carbonyl]-1-piperidyl]pyrimidine-4-carboxamide TFA salt], the pIC50 was 5.61 with U937 cells (Homo sapiens, U-937, Table 2) and 6.74 in experiment [1] (Table 1).

As for `N#Cc1cncc([C@@H]2CCON2C(=O)C2CCN(c3nccc(C(=O)O)n3)CC2)c1` [Ex. 009], the pIC50 is below 5.00 with U937 cells (Homo sapiens, U-937, Table 2) and 5.33 in experiment [1] (Table 1).

On to `N#Cc1cncc([C@@H]2CCON2C(=O)C2CCN(c3cncc(C#N)n3)CC2)c1` [Ex. 067], for which the pIC50 was 6.26 with U937 cells (Homo sapiens, U-937, Table 2) and 7.07 in experiment [1] (Table 1).

For `N#Cc1ccnc(N2CCC(C(=O)N3OCC[C@H]3c3cncc(N4CCC4=O)c3)CC2)n1` [Ex. 056, 2-[4-[(3S)-3-[5-(2-Oxoazetidin-1-yl)-3-pyridyl]isoxazolidine-2-carbonyl]-1-piperidyl]pyrimidine-4-carbonitrile], the pIC50 with U937 cells (Homo sapiens, U-937, Table 2) is 5.66; in experiment [1] (Table 1), 7.37.

As to `NC(=O)c1cc(N2CCC(C(=O)N3OCCC3C3CCCOC3)CC2)ncn1` (racemic) [Ex. 023*, 6-[4-[3-Tetrahydropyran-3-ylisoxazolidine-2-carbonyl]-1-piperidyl]pyrimidine-4-carboxamide TFA salt], the pIC50 was 5.33 with U937 cells (Homo sapiens, U-937, Table 2) and 6.10 in experiment [1] (Table 1).

For the molecule `NC(=O)c1cc(N2CCC(C(=O)N3OCCC3c3cncc(F)c3)CC2)ncn1` (racemic) [Ex. 048*], the pIC50 was 6.88 in the experiment on U937 cells (Homo sapiens, U-937, Table 2) and 7.48 in experiment [1] (Table 1).

As for `NC(=O)c1ccnc(N2CCC(C(=O)N3OCC[C@H]3c3cncc(N4CCC4=O)c3)CC2)n1` [Ex. 055], the pIC50 was 6.07 in the experiment on U937 cells (Homo sapiens, U-937, Table 2) and 7.00 in experiment [1] (Table 1).

As to `N#Cc1cncc([C@@H]2CCON2C(=O)C2CCN(c3ncc(F)c(C(N)=O)n3)CC2F)c1` (some centres unmarked) [Ex. 155], the pIC50 with U937 cells (Table 2) was 8.39; in experiment [1] (Table 1) it was 7.78.

In the case of `N#Cc1cc([C@@H]2CCON2C(=O)C2CCN(c3nccc(C(N)=O)n3)CC2)cs1` [Ex. 168], the pIC50 in the experiment with U937 cells (Homo sapiens, U-937, Table 2) was 7.10; in experiment [1] (Table 1), 7.34.

Take `Cn1ccc(C2CCON2C(=O)C2CCN(c3nccc(C#N)n3)CC2)n1` (racemic) [Example 007, 2-[4-[3-(1-methylpyrazol-3-yl)isoxazolidine-2-carbonyl]-1-piperidyl] pyrimidine-4-carbonitrile]: the pIC50 with U937 cells (Homo sapiens, U-937, Table 2) was 5.62; in experiment [1] (Table 1), 7.19.

Turning to `N#Cc1ccnc(N2CCC(C(=O)N3OCCC3c3ccc(N)nc3)CC2)n1` (racemic) [Ex. 037*], the pIC50 in the experiment with U937 cells (Homo sapiens, U-937, Table 2) was 6.75; in experiment [1] (Table 1), 7.50.

In the case of `N#Cc1cncc([C@@H]2CCON2C(=O)C2CCN(c3ncc(F)c(OCC(=O)O)n3)CC2)c1` [Ex. 033, 2-[2-[4-[(3S)-3-(5-Cyano-3-pyridyl)isoxazolidine-2-carbonyl]-1-piperidyl]-5-fluoro-pyrimidin-4-yl]oxyacetic acid TFA salt], the pIC50 in the experiment with U937 cells (Homo sapiens, U-937, Table 2) was below 5.00; in experiment [1] (Table 1), 6.29.

For `Cc1cncc([C@@H]2CCON2C(=O)C2CCN(c3ncc(C)c(C(N)=O)n3)CC2)n1` [Ex. 097], the pIC50 is 7.38 in the experiment with U937 cells (Homo sapiens, U-937, Table 2) and 7.62 in experiment [1] (Table 1).

Consider `Cc1cnc(N2CCC(C(=O)N3OCC[C@H]3c3cnccn3)CC2)nc1C(N)=O` [Ex. 99], for which the pIC50 was 7.27 with U937 cells (Homo sapiens, U-937, Table 2) and 7.65 in experiment [1] (Table 1).

On to `Cc1cnc([C@@H]2CCON2C(=O)C2CCN(c3cc(C#N)ncn3)CC2)cn1` [compound 91, 6-[4-[(3S)-3-(5-methylpyrazin-2-yl)isoxazolidine-2-carbonyl]-1-piperidyl]pyrimidine-4-carbonitrile], for which the pIC50 in the experiment on U937 cells (Homo sapiens, U-937, Table 2) is 6.74; in experiment [1] (Table 1) it was 7.83.

For `N#Cc1cncc([C@@H]2CCON2C(=O)C2CCN(c3nccc(C(N)=O)n3)CC2)c1` [Ex. 004], the IC50 (commonly the concentration that gives 50% inhibition) in the experiment with U937 cells (Homo sapiens) came to 0.022 µM. For the same molecule, the negative-log IC50 (pIC50) in experiment [1] (Key compound table 4) was 7.80.

In the case of `NC(=O)c1ccnc(N2CCC(C(=O)N3OCC[C@H]3c3ccc(Cl)cn3)CC2)n1` [Ex. 083], the pIC50 is 7.31 in the experiment on U937 cells (Homo sapiens, U-937, Table 2) and 7.79 in experiment [1] (Table 1).

Turning to `N#Cc1cncc([C@@H]2CCON2C(=O)C2CCN(c3cnc(Cl)nc3C(=O)O)CC2)c1` [Ex. 121], the pIC50 is 5.35 in the experiment on U937 cells (Homo sapiens, U-937, Table 2) and below 4.48 in experiment [1] (Table 1).

As for `N#Cc1cncc([C@@H]2CCON2C(=O)C2CCN(c3cnc(C#N)cn3)CC2)c1` [Ex. 066], the pIC50 was 6.69 with U937 cells (Homo sapiens, U-937, Table 2) and 7.45 in experiment [1] (Table 1).

As to `CSc1nc(N2CCC(C(=O)N3OCC[C@H]3c3cncc(C#N)c3)CC2)ncc1F` [Ex. 103, 5-[(3S)-2-[1-(5-Fluoro-4-methylsulfanyl-pyrimidin-2-yl)piperidine-4-carbonyl]isoxazolidin-3-yl]pyridine-3-carbonitrile], the pIC50 with U937 cells (Homo sapiens, U-937, Table 2) is 8.84; in experiment [1] (Table 1), 7.76.

As for `N#Cc1cncc([C@@H]2CCON2C(=O)[C@H]2CCN(c3nccc(C(N)=O)n3)C[C@H]2F)c1` (single isomer, unassigned) [compound 96], the pIC50 in the experiment on U937 cells (Homo sapiens, U-937, Table 2) is 6.69; in experiment [1] (Table 1) it was 7.59.

With `N#Cc1cncc([C@@H]2CCON2C(=O)C2CCN(c3ncc(F)c(C(N)=O)n3)CC2)c1` [compound 68], the pIC50 in the experiment on U937 cells (Homo sapiens, U-937, Table 2) was 8.49; in experiment [1] (Table 1), 7.83.

Take `NC(=O)c1nc(N2CCC(C(=O)N3OCC[C@H]3c3cnccn3)CC2)ncc1F` [Ex. 075]: the IC50 in the experiment with U937 cells (Homo sapiens) is 0.003 µM. The molecule further gave a pIC50 in experiment [1] (Key compound table 4) of 8.10.

Consider `N#Cc1cncc([C@@H]2CCON2C(=O)C2CCN(c3cc(C(N)=O)ccn3)CC2)c1` [Ex. 026], for which the pIC50 was 5.72 with U937 cells (Homo sapiens, U-937, Table 2) and 7.20 in experiment [1] (Table 1).

In the case of `N#Cc1cncc([C@@H]2CCON2C(=O)C2CCN(c3nccc(C(=O)O)n3)CC2)c1` (single isomer, unassigned) [compound 102], the pIC50 in the experiment on U937 cells (Homo sapiens, U-937, Table 2) is below 5.00; in experiment [1] (Table 1), 6.35.

As to `Cc1nc([C@@H]2CCON2C(=O)C2CCN(c3ncc(F)c(C(N)=O)n3)CC2)cs1` [Ex. 170], the pIC50 is 7.78 in the experiment with U937 cells (Homo sapiens, U-937, Table 2) and 7.66 in experiment [1] (Table 1).

For the molecule `N#Cc1ccnc(N2CCC(C(=O)N3OCCC3c3ccc4nccn4c3)CC2)n1` (racemic) [Example 014, 2-[4-[3-imidazo[1,2-a]pyridin-6-ylisoxazolidine-2-carbonyl]-1-piperidyl] pyrimidine-4-carbonitrile TFA salt], the pIC50 in the experiment with U937 cells (Homo sapiens, U-937, Table 2) is below 5.00; in experiment [1] (Table 1) it was 6.14.

In the case of `N#Cc1ccc([C@@H]2CCON2C(=O)C2CCN(c3nccc(C(N)=O)n3)CC2)nc1` [Ex. 108], the pIC50 with U937 cells (Homo sapiens, U-937, Table 2) was 6.00; in experiment [1] (Table 1) it was 7.09.

Take `Cc1coc([C@@H]2CCON2C(=O)C2CCN(c3cc(C#N)ncn3)CC2)c1` [compound 152, (S)-6-(4-(3-(4-methylfuran-2-yl)isoxazolidine-2-carbonyl)piperidin-1-yl)pyrimidine-4-carbonitrile 2,2,2-trifluoroacetate salt]: the pIC50 with U937 cells (Homo sapiens, U-937, Table 2) was 6.89; in experiment [1] (Table 1) it was 6.88.

In the case of `Cc1ccc([C@@H]2CCON2C(=O)C2CCN(c3cc(C(N)=O)ncn3)CC2)s1` (single isomer, unassigned) [Ex. 176], the pIC50 is 8.43 in the experiment on U937 cells (Homo sapiens, U-937, Table 2) and 7.66 in experiment [1] (Table 1).
